Laboratory results published in ChEMBL document CHEMBL1201862, “PubChem BioAssay data set” (2004).
Calls of active or inactive are those of the source.

How the values were obtained:
[1] = molecular target: T1, Short transient receptor potential channel 4 (Mus musculus, UniProt Q9QUQ5); test: mouse TRPC4 channel activators, dose response, cell-based, HEK293 TRPC4/mu-opioid, Fluo-4 calcium (AID 434937); assay type: functional
T1 sequence (Q9QUQ5 whole entry): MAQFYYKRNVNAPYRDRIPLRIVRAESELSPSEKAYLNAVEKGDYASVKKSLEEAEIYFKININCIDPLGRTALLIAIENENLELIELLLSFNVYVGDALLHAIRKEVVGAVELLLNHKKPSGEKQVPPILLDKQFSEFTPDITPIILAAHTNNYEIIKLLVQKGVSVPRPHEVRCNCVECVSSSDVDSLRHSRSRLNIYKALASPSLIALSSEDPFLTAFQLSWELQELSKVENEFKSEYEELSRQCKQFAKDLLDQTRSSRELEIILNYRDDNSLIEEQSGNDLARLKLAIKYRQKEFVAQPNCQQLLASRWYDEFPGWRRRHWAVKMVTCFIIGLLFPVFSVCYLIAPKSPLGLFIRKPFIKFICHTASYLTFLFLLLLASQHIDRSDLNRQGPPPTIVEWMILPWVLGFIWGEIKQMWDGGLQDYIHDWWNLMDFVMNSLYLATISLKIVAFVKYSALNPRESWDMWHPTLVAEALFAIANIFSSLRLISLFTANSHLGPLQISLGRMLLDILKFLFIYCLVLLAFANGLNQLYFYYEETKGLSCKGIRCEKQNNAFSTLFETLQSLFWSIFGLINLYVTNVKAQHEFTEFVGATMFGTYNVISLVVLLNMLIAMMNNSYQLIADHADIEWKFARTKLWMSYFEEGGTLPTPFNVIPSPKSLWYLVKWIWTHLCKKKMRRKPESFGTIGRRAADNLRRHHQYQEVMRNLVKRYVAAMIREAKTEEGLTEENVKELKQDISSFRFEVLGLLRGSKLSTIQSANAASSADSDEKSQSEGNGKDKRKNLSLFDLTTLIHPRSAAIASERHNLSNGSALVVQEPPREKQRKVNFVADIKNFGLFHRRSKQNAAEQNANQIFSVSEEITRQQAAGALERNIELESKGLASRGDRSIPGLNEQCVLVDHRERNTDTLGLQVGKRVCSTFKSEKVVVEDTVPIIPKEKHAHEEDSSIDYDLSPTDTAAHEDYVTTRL

[2] = molecular target: T1, Short transient receptor potential channel 4; test: mouse TRPC4 channel inhibitors, dose response, cell-based, HEK293 TRPC4/mu-opioid, Fluo-4 calcium (AID 434942); assay type: functional;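 note: potency of inhibitors blocking the TRPC4 calcium response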
[3] = growth suppression of PTEN-null colon cells, dose response, cell-based, HCT116 PTEN knockout (AID 1047); assay type: functional;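 note: HCT116 colon tumor cells with PTEN knocked out; cells exposed to compound for 60 hours before readout; potency for loss of cell viability measured by luminescence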
[4] = growth suppression of beta-catenin-knockout colon cells, dose response, cell-based, HCT116, human colon tumor (AID 1045); assay type: functional;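 note: HCT116 colon tumor cells with beta catenin knocked out; cells exposed to compound for 60 hours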
[5] = molecular target: T2, Heat shock factor protein 1 (Mus musculus, UniProt P38532); test: HSF1 potentiators in luciferase reporter cells, confirmation, cell-based, NIH3T3, luminescence, dose retest (AID 435004); assay type: functional;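 note: stress induced by proteasome inhibitor MG132 added 30 min after compound; luciferase reporter driven by HSF1 response element in NIH3T3 cells; actives raise luminescence as potentiators of the MG132 stress response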
T2 sequence (P38532 whole entry): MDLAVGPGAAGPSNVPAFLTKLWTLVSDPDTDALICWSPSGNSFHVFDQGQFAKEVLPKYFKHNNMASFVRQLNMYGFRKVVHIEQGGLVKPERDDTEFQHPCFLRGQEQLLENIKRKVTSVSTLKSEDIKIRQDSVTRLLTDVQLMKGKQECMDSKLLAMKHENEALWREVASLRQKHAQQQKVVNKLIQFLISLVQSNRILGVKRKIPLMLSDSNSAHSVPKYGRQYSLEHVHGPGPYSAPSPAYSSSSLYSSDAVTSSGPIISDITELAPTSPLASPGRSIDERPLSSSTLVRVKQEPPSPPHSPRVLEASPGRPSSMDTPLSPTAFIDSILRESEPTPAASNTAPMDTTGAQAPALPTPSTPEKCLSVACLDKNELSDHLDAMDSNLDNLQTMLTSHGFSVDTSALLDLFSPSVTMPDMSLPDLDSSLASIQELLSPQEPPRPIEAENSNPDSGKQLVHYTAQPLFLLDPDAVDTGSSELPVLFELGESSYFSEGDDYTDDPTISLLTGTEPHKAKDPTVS

[6] = molecular target: T3, Ubiquitin-conjugating enzyme E2 N (Homo sapiens, UniProt P61088); assay type: functional;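 note: Dose-response confirmation in a TR-FRET assay detecting UBC13-driven polyubiquitin chain formation, inhibition measured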
T3 sequence (P61088 whole entry): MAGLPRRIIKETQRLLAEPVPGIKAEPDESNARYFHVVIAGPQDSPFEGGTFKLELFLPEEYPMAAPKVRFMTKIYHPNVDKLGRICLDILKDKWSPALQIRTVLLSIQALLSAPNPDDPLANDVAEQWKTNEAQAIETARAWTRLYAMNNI

[7] = molecular target: T4, DNA repair protein RAD52 homolog (Homo sapiens, UniProt P43351); assay type: functional, biochemical
T4 sequence (P43351 whole entry): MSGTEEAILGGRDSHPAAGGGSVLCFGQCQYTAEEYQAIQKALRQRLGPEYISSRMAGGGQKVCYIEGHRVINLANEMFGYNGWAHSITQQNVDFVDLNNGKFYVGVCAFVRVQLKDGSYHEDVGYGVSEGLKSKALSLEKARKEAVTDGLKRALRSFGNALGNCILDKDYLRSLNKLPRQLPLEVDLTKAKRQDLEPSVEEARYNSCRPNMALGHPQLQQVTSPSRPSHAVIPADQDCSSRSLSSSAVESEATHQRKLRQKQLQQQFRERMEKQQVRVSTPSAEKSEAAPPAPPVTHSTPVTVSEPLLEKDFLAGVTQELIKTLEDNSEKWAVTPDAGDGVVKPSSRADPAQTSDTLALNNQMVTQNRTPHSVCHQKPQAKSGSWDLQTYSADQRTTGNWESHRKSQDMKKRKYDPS

[8] = molecular target: T5, Corticotropin-releasing factor receptor 2/Corticotropin-releasing factor-binding protein (Homo sapiens, UniProt P24387+Q13324); test: activators of CRF receptor 2 with binding protein – uHTS hits, confirmation (AID 602473); assay type: functional; conditions: read-out: EC50_Mean
T5 sequence (Q13324 whole entry): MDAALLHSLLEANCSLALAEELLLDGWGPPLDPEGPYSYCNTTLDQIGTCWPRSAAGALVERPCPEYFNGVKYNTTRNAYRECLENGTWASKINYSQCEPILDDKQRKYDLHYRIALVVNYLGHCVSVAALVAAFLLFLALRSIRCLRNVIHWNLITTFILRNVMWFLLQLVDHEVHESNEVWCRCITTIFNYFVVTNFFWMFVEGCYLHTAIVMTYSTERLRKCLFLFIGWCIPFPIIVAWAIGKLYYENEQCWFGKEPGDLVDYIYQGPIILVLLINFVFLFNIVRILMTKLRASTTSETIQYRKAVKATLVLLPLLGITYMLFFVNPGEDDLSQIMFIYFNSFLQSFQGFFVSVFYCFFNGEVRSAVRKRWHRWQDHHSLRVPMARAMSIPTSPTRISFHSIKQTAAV
T5 sequence (P24387 whole entry): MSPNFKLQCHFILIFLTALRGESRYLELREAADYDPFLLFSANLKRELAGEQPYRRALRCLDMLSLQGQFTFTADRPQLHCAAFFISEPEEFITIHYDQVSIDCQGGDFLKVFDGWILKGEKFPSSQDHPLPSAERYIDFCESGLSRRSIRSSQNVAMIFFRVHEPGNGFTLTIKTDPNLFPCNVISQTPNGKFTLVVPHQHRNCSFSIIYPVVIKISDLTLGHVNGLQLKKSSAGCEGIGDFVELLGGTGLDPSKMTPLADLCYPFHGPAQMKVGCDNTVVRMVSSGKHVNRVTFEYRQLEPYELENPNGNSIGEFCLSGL

Nonstructural protein 1 = Nonstructural protein 1 (Influenza A virus, UniProt Q194T2); assay type: functional, Influenza A virus (A/California/07/2009(H1N1))
Sequence of Nonstructural protein 1 (Q194T2 whole entry): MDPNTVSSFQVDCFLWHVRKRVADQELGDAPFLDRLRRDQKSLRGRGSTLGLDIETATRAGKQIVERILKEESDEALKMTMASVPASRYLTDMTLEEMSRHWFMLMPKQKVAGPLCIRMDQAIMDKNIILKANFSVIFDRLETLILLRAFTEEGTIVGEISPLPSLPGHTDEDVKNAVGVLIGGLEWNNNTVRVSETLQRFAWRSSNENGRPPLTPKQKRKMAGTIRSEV

| Structure (SMILES) | EC50 [1] | EC50 [2] | further results |
| --- | --- | --- | --- |
| CCCCN(C)CCCNC(=O)CN1N=C(c2ccc(Cl)cc2)CCC1=O | 0.596 µM (active) |  |  |
| OCC1(Cc2ccccc2)CCCN(Cc2cnn(-c3ccccc3)c2)C1 (stereo not given) |  | 4.22 µM (active) |  |
| Fc1ccc(-c2nnc3ccc(N4CCc5ccccc5C4)nn23)cc1 |  |  | EC50 [3]: 40.1 µM (active); EC50 [4]: 54 µM (active); EC50 [5]: > 260 µM (inactive) |
| Cc1cccc(-c2nc3ccc(C(=O)NCCN4CCN(C)CC4)cc3nc2-c2cccc(C)c2)c1 |  |  | IC50 [6]: > 20 µM (inactive); AC50 [7]: 9.79 µM (active) |
| CCOc1ccccc1N(CC(=O)N1CCOCC1)S(=O)(=O)c1ccccc1 | 5.31 µM (active) | 6.68 µM (active) | EC50 [8]: 8.04 µM (active) |
| COc1cc(C(=O)NC(=S)NNC(=O)[C@H]2C[C@@H]2c2ccccc2)cc(OC)c1OC | 3.76 µM (active) |  |  |
| Cc1nnc2sc(SCC(=O)Nc3cccc(Cl)c3)nn2c1=O |  |  | IC50 (Nonstructural protein 1): 10.4 µM (active) |
| Cn1c(-c2ccccc2)cnc1NCc1ccc(F)cc1 |  | 1.88 µM (active) |  |
| O=C(NCC(c1cccs1)N1CCOCC1)c1ccc(Cl)c([N+](=O)[O-])c1 (stereo not given) | 5.31 µM (active) |  |  |
| COc1ccc(C2C(C(C)=O)=C(O)C(=O)N2c2ccc(Br)cc2)cc1 (stereo not given) |  | 0.668 µM (active) |  |
